In US20040167131A1, “Inhibitors of factor Xa and other serine proteases involved in the coagulation cascade” (Pfizer Inc., priority 2002, published 2004):
Read-outs that look alike come from different tables or passages of the source.

Molecular target: T1, human factor Xa (Homo sapiens, UniProt P00742)
T1 construct: purchased Enzyme Research Laboratories
Experiment: Determination of Factor Xa IC50 (cleavage of fluorogenic substrate F-S2765)
Format: biochemical
Protocol: The ability of compounds to act as inhibitors of human factor Xa catalytic activity was assessed by determination of that concentration of test substance that inhibited by 50% (IC50) the ability of human factor Xa to cleave the fluorogenic substrate F-S2765 (N-α-Z-D-Arg-Gly-Arg-pNA HCl, California Peptide Research). […] The IC50 was determined at 3 pM and/or 30 pM concentrations of human factor Xa (Enzyme Research Laboratories). These concentrations were achieved by diluting a stock solution of human factor Xa in the appropriate amount of buffer containing 10 mM HEPES, 150 mM NaCl, and 0.1% BSA at pH 7.4 (HBSA buffer). Accordingly, 73 μL of the factor Xa/buffer solution was added to 2.5 μL of DMSO-reconstituted compound and incubated for 55 minutes at room temperature. After warming to 37° C. for am additional 5 minutes, 50 μL of rewarmed substrate was added and the IC50 determined by monitoring the increase in absorbance at 390 nm excitation/460 nm emission (455 nm cutoff) in a fluorometric plate reader or 30 minutes.

[1] = 30 pM human factor Xa, read-out: FxXa 30 pM IC50
[2] = 3 pM human factor Xa, read-out: FXa 3 pM IC50

T1 sequence (P00742 235-488 limits assumed): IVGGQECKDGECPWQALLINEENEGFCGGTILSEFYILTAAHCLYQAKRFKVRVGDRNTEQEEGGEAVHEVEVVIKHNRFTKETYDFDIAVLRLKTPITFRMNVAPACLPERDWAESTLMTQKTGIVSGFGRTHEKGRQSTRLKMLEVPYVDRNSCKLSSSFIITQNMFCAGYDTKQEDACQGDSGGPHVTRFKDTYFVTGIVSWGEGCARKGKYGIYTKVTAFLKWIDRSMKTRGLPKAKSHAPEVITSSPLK
T1 sequence (P00742 41-179 partner limits assumed): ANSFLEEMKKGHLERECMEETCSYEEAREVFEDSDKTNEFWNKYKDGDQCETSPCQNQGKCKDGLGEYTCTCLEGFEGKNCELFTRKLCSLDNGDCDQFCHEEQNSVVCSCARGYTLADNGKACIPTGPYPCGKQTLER

Row | SMILES | IC50 [1] [nM] | other results
1 | NS(=O)(=O)c1ccccc1-c1ccc(NC(=O)C2(NC(=O)Nc3ccc(Cl)cc3)CCSCC2)c(F)c1 [Example 17, 4-[3-(4-Chloro-phenyl)-ureido]-tetrahydro-thiopyran-4-carboxylic acid (3-fluoro-2′-sulfamoyl-biphenyl-4-yl)-amide] | 65 | 
2 | CC(C)(NC(=O)Nc1ccc(Cl)cc1)C(=O)Nc1ccc(-c2ccccc2S(C)(=O)=O)cc1F [Example 7, 2-[3-(4-Chloro-phenyl)-ureido]-N-(3-fluoro-2′-methanesulfonyl-biphenyl-4-yl)-2-methyl-propionamide] |  | IC50 [2]: 20 nM
3 | NS(=O)(=O)c1ccccc1-c1ccc(NC(=O)C2(NC(=O)Nc3ccc(Cl)cc3)CCOCC2)c(F)c1 [Example 16, 4-[3-(4-Chloro-phenyl)-ureido]-tetrahydro-pyran-4-carboxylic acid (3-fluoro-2′-sulfamoyl-biphenyl-4-yl)-amide] | 252 | 
4 | CN(CC(=O)Nc1ccc(-c2ccccc2S(C)(=O)=O)cc1F)C(=O)Nc1ccc(Cl)cc1 [Example 12, 2-[3-(4-Chloro-phenyl)-1-methyl-ureido]-N-(3-fluoro-2′-methanesulfonyl-biphenyl-4-yl)-acetamide] | 20 | 
5 | NS(=O)(=O)c1ccccc1-c1ccc(NC(=O)C2(NC(=O)Nc3ccc(Cl)cc3)CC2)c(F)c1 [Example 5, 1-[3-(4-Chloro-phenyl)-ureido]-cyclopropanecarboxylic acid (3-fluoro-2′-sulfamoyl-biphenyl-4-yl)-amide] | 36 | 
6 | CS(=O)(=O)c1ccccc1-c1ccc(NC(=O)C2(NC(=O)Nc3ccc(Cl)cc3)CC2)c(F)c1 [Example 3, 1-[3-(4-Chloro-phenyl)-ureido]-cyclopropanecarboxylic acid (3-fluoro-2′-methanesulfonyl-biphenyl-4-yl)-amide] |  | IC50 [2]: 22 nM
7 | CS(=O)(=O)c1ccccc1-c1ccc(NC(=O)CN(Cc2ccccc2)C(=O)Nc2ccc(Cl)cc2)c(F)c1 [Example 27, 2-[1-Benzyl-3-(4-chloro-phenyl)-ureido]-N-(3-fluoro-2′-methanesulfonyl-biphenyl-4-yl)-acetamide] |  | FxXa 30 pM, % @ 1 μM (30 pM human factor Xa, compound @ 1 μM): 30% @ 1 μM
8 | NS(=O)(=O)c1ccccc1-c1ccc(NC(=O)C2(NC(=O)Nc3ccc(Cl)cc3)CC=CC2)c(F)c1 [Example 11, 1-[3-(4-Chloro-phenyl)-ureido]-cyclopent-3-enecarboxylic acid (3-fluoro-2′-sulfamoyl-biphenyl-4-yl)-amide] | 66 | 
9 | CC(C)(NC(=O)Nc1ccc(Cl)cn1)C(=O)Nc1ccc(-c2ccccc2S(C)(=O)=O)cc1F [Example 8, 2-[3-(5-Chloro-pyridin-2-yl)-ureido]-N-(3-fluoro-2′-methanesulfonyl-biphenyl-4-yl)-2-methyl-propionamide] | 287 | 
10 | CS(=O)(=O)c1ccccc1-c1ccc(NC(=O)C2(NC(=O)Nc3ccc(Cl)cc3)CCN(C(=O)OCc3ccccc3)C2)c(F)c1 (stereo not shown) [Example 22, 3-[3-(4-Chloro-phenyl)-ureido]-3-(3-fluoro-2′-methanesulfonyl-biphenyl-4-ylcarbamoyl)-pyrrolidine-1-carboxylic acid benzyl ester] | 175 | 
11 | COc1ccc(CN(CC(=O)Nc2ccc(-c3ccccc3S(C)(=O)=O)cc2F)C(=O)Nc2ccc(Cl)cc2)cc1 [Example 28, 2-[3-(4-Chloro-phenyl)-1-(4-methoxy-benzyl)ureido]-N-(3-fluoro-2′-methanesulfonyl-biphenyl-4-yl)-acetamide] | 80 | 
12 | CS(=O)(=O)c1ccccc1-c1ccc(NC(=O)C2(NC(=O)Nc3ccc(Cl)cc3)CCCCC2)cc1 [Example 10, 1-[3-(4-Chloro-phenyl)-ureido]-cyclohexanecarboxylic acid (2′-methanesulfonyl-biphenyl-4-yl)-amide] |  | IC50 [2]: 16 nM
13 | COCCN(CC(=O)Nc1ccc(N2CCCCC2=O)cc1F)C(=O)Nc1ccc(Cl)cc1 [Example 29, 2-[3-(4-Chloro-phenyl)-1-(2-methoxy-ethyl)-ureido]-N-[2-fluoro-4-(2-oxo-piperidin-1-yl)-phenyl]-acetamide] | 224 | 
